One data set concerns HCT116 wild-type cells. Nature of the data set: Cell proliferation inhibition (CellTiter-Glo), wild-type cells. The data set is classed as cell-based. The conditions noted are these: Homo sapiens, HCT-116, HCT116 wild-type cells, 72-240 hours incubation. An excerpt: (§1) Test Example 2: Determination of the inhibitory effect of the compounds of the present invention on the proliferation activity of HCT116 and MTAP Knockout HCT116 cells.
(§2) 1. Experimental objective: to determine the inhibitory effect of the compound on the proliferation activity of HCT116 wild-type and HCT116 MTAP knockout cells. 2. Experimental instruments: Centrifuge (Eppendorf 5810R); microplate reader (BioTek Synergy H1 or PerkinElmer Envision); pipette (Eppendorf or Rainin). 3. Experimental reagents: HCT116 and MTAP Knockout HCT116 cells were purchased from Nanjing Cobioer; Cell Titer-Glo was purchased from Promega (Cat. No. G7573); McCoy' 5A was purchased from Gibco (Cat. No. 12330031); FBS was purchased from Gibco (Cat. No. 10091148); PBS was purchased from Gibco (Cat. No. 10010023); trypsin was purchased from Gibco (Cat. No. 25200056); cell culture plates were purchased from Corning (Cat. No. 3610). 4. Experimental methods: HCT116 and MTAP Knockout HCT116 cells were cultured in McCoy'5A medium containing 10% FBS until an appropriate cell density was reached. The cells were then collected and adjusted to a suitable concentration using complete medium. The cell suspension was seeded into a 96-well plate at 90 µL per well and allowed to adhere overnight in a 37°C, 5% CO2 incubator. Compound solutions of various concentrations were prepared using DMSO and culture medium, with a vehicle control set. The compound solutions were added to the 96-well plate at 10 µL per well, and the plate was incubated in a 37°C, 5% CO2 incubator for an additional 72-240 hours. After incubation, CellTiter-Glo solution was added, and the mixture was mixed uniformly by shaking, followed by incubation in the dark for 10 to 30 minutes. Luminescence was measured using a Synergy H1 or Envision microplate reader. 5. Experimental data processing method: The inhibition rate was calculated using the luminescence signal values, and the concentrations along with the inhibition rates were subjected to non-linear regression curve fitting using Graphpad Prism software to obtain the IC50 values.

Data set [1] has as its target T1, PRMT5/MEP50-MTA protein complex (Homo sapiens, UniProt O14744).
T1 construct: purchased Viva Biotech
Nature of the data set: Thermal shift assay: change in melting temperature of the PRMT5/MEP50-MTA protein complex. The conditions noted are these: compound 8 µM, PRMT5/MEP50 2 µM, MTA 2 µM; Tm minus DMSO vehicle control. The data set is classed as binding. An excerpt: Test Example 1: Determination of the ability of the compounds of the present invention to improve the thermal stability (melting temperature) of the PRMT5/MEP50-MTA protein complex.
1. Experimental objective: The objective of this test example is to determine the ability of the compound to improve the thermal stability of the PRMT5/MEP50-MTA protein complex, resulting in an increase in the protein melting temperature. 2. Experimental instruments: Quantitative PCR instrument (Quantstudio6 Flex) was purchased from Life Technologies; pipettes were purchased from Eppendorf or Rainin. 3. Experimental reagents and consumables: PRMT5/MEP50 protein was prepared by Viva Biotech; HEPES was purchased from Thermo Fisher Scientific (Cat. No. 15630080); DTT was purchased from Sigma (Cat. No. 43816-10ml); sodium chloride was purchased from Invitrogen (Cat. No. AM9760G); Protein Thermal Shift™ Dye Kit was purchased from Thermo Fisher Scientific (Cat. No. 4461146); methylthioadenosine (MTA) was purchased from Sigma (Cat. No. D5011). 4. Experimental methods: In this experiment, the thermal shift method was used to measure the change in the melting temperature (Tm) of the PRMT5/MEP50-MTA protein complex before and after compound binding, thereby characterising the ability of the compound to improve the thermal stability of the PRMT5/MEP50-MTA protein complex. A solution containing 50 mM HEPES, 10 mM DTT, 2 µM MTA, SYPRO Orange and 250 mM NaCl was prepared as the experimental buffer. Human PRMT5/MEP50 protein was added to a final concentration of 2 µM, and the mixture was incubated at room temperature for 30 minutes. The above reaction mixture was aliquoted into 8-strip PCR tubes at 19.5 µL per tube. Then 0.5 µL of test compound or DMSO was added to each tube, providing a total reaction volume of 20 µL and a final compound concentration of 8 µM. 2.5% DMSO was set as the vehicle control. After incubation at room temperature for 10 minutes, the PCR tubes were placed in a PCR instrument, and the melt curve function was selected to measure the melting temperature of the PRMT5/MEP50-MTA protein complex in different treatment groups (heated from 25°C to 95°C, 0.03°C/s). 5. Experimental data processing method: The experimental data files from the PCR instrument were imported into the thermal shift software to obtain the melting temperature (Tm) for each treatment group.

For data set [2], the system named is MTAP Knockout HCT116 cells. Nature of the data set: Cell proliferation inhibition (CellTiter-Glo), MTAP knockout cells. It is filed as cell-based. The conditions noted are these: for Selectivity: HCT116 versus MTAP Knockout HCT116; for pIC50: Homo sapiens, HCT-116, MTAP Knockout HCT116 cells, 72-240 hours incubation, CellTiter-Glo.
Excerpt: as §1, §2
A general note: Cellular ATP, detected with luciferase, serves as a proxy for viable cell number.

Data set [3] in a line: Pharmacokinetics in rats (plasma) after oral administration. The note with it: male, SD, rat, 5 mg/kg.

pIC50: −log10 of the molar value.

T1 sequence (O14744 whole entry): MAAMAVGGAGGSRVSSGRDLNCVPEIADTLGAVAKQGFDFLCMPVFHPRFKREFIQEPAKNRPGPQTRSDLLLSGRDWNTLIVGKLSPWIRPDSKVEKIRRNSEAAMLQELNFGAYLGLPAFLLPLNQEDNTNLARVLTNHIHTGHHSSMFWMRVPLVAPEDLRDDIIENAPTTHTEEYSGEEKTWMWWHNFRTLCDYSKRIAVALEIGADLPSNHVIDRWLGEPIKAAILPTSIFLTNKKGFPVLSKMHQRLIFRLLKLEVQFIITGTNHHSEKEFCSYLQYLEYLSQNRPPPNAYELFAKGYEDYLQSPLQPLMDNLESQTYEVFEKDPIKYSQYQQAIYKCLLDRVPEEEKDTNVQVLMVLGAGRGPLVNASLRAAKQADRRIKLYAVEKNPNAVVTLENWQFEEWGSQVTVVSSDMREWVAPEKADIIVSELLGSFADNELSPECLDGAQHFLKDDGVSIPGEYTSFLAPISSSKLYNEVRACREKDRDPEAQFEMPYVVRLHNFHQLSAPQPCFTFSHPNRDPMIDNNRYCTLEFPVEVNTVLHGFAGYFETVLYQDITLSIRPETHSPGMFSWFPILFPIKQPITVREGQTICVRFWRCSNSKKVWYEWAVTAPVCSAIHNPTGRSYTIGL
T1 sequence (Q9BQA1 whole entry partner): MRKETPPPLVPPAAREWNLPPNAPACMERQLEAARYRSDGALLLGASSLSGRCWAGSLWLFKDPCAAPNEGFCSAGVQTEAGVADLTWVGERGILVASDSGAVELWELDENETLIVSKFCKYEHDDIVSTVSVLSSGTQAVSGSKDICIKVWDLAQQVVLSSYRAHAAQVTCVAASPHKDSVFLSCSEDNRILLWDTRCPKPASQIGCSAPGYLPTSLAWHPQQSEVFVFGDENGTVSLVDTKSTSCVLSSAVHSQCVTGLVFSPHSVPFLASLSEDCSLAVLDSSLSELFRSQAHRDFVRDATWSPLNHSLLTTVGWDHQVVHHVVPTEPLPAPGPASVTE

Consider `CNN(C(=O)c1ccc2nc(N)c3cnn(C)c3c2c1)C1COCc2nc(C(F)(F)F)ccc21` (racemic) [Example 301, 4-Amino-N',1-dimethyl-N-[2-(trifluoromethyl)-6,8-dihydro-5H-pyrano[3,4-b]pyridin-5-yl]pyrazolo[4,3-c]quinoline-8-hydrazide], for which the results for the negative-log IC50 (pIC50) (with HCT116 wild-type cells; in data set [2]) were 5.87 and 7.85, respectively. Besides, the ΔTm (usually the change in melting temperature against a reference sample) at 8 µM in data set [1] was 11.6 °C. Besides, the Selectivity in data set [2] came to 94.
For `CN(C(=O)c1ccc2nc(N)c3cnn(C)c3c2c1)C1COCc2c1ccn1cc(Br)nc21` (stereo not drawn) [Example 37, 4-Amino-N-(2-bromo-7,10-dihydro-8H-imidazo[1,2-a]pyrano[3,4-c]pyridin-7-yl)-N,1-dimethyl-1H-pyrazolo [4,3-c] quinoline-8-carboxamide], in that order: 5.82, 8.04, 11.3 °C and 166.
The like results for `Cc1cc2nc(N)c3cncn3c2cc1C(=O)N(C)[C@@H]1COCc2c1ccn1cc(C(F)(F)F)nc21` [Example 39-P1, (S)-4-amino-N,7-dimethyl-N-(2-(trifluoromethyl)-7,10-dihydro-8H-imidazo[1,2-a]pyrano[3,4-c]pyridin-7-yl)imidazo[1,5-a]quinoxaline-8-carboxamide] were, in that order, 5.86, 7.89, 12.4 °C and 108.
For `Cc1cc2nc(N)c3cncn3c2cc1C(=O)N(C)[C@@H]1COCc2c1ccn1c(C(F)(F)F)cnc21` [Example 62-P1, (S)-4-amino-N,7-dimethyl-N-(3-(trifluoromethyl)-7,10-dihydro-8H-imidazo[1,2-a]pyrano[3,4-c]pyridin-7-yl)imidazo[1,5-a]quinoxaline-8-carboxamide], in data set [3], the AUC(0-inf) – broadly, the area under the concentration-time curve extrapolated to infinity – turned out to be 1360 ng·h/mL; the highest level (Cmax) was 441 ng/mL; the MRT inf (usually the average time that molecules of a dose stay in the body) was 4 h; the Tmax – broadly, the time from dosing to the highest level – is 0.5 h. Further, in data set [3], the half-life – broadly, how long it takes for the measured level to halve – is 4.1 h. The shift in melting temperature (ΔTm) at 8 µM in data set [1] came to 12.5 °C.
Regarding `CNN(C(=O)c1cc2c(cc1F)nc(N)c1cncn12)C1COCc2nc(C(F)(F)F)ccc21` (stereo not drawn) [Example 279, 4-Amino-7-fluoro-N'-methyl-N-[2-(trifluoromethyl)-6,8-dihydro-5H-pyrano[3,4-b]pyridin-5-yl]imidazo[1,5-a]quinoxaline-8-hydrazide], in data set [3], the AUC(0-inf) worked out at 729 ng·h/mL; the Cmax – broadly, the highest concentration seen after dosing – was found to be 233 ng/mL; the MRT inf turned out to be 2.1 h; the time to peak (Tmax) was found to be 0.5 h. For the same compound, in data set [3], the half-life was 1 h. For the same compound, in data set [1], the ΔTm at 8 µM is 12.2 °C.
As to `[2H]C([2H])([2H])NN(C(=O)c1cc2c3c(c(N)nc2cc1F)COC3)C1COCc2c1ccn1c(C(F)(F)F)cnc21` (stereo not drawn) [Example 351, 4-Amino-7-fluoro-N'-(trideuteriomethyl)-N-(3-trifluoromethyl-7,10-dihydro-8H-imidazo [1,2-a]pyrano [3,4-c]pyridin-7-yl)-1,3-dihydrofuro [3,4-c] quinoline-8-carbohydrazide], in data set [3], the total exposure AUC(0-inf) is 9660 ng·h/mL, the peak level (Cmax) was 2330 ng/mL, the MRT inf worked out at 3.3 h and the Tmax is 0.5 h. In data set [3], this compound showed a half-life of 2.3 h. The ΔTm at 8 µM in data set [1] amounted to 12.6 °C.
On to `[2H]C([2H])([2H])NN(C(=O)c1cc2c3c(c(N)nc2cn1)C(C)OC3)C1COCc2c1ccn1c(C(F)(F)F)cnc21` (stereo not drawn) [Example 362, 4-Amino-3-methyl-N'-(trideuteriomethyl)-N-(3-trifluoromethyl-7,10-dihydro-8H-imidazo[1,2-a]pyrano[3,4-c]pyridin-7-yl)-1,3-dihydrofuro[3,4-c] naphthyridine-8-carbohydrazide], for which the shift in melting temperature (ΔTm) at 8 µM in data set [1] amounted to 11.2 °C.
The same measure, in the same setting: the figure for `CNN(C(=O)c1cc2c3c(c(N)nc2cn1)COC3)C1COc2cc(S(F)(F)(F)(F)F)ccc21` [Example 372, rel-(R)-4-amino-N'-methyl-N-(6-(pentafluoro-6-sulphanyl)-2,3-dihydrobenzofuran-3-yl)-1,3-dihydrofuro[3,4-c][1,7]naphthyridine-8-carbohydrazide] is 11.2 °C; for `CNN(C(=O)c1cc2c(cn1)nc(N)c1cnn(C)c12)C1COc2cc(S(F)(F)(F)(F)F)ccc21` (stereo not drawn) [Example 375, 4-Amino-N',1-dimethyl-N-(6-(pentafluoro-6-sulphanyl)-2,3-dihydrobenzofuran-3-yl)-1H-pyrazolo[4,3-c][1,7]naphthyridine-8-carbohydrazide] it is 12.7 °C; for `CNN(C(=O)c1cc2c(cn1)nc(N)c1cncn12)C1COCc2nc(S(F)(F)(F)(F)F)ccc21` (stereo not drawn) [Example 387, 4-Amino-N'-methyl-N-(2-pentafluorosulphanyl-5,8-dihydro-6H-pyrano[3,4-b]pyridin-5-yl)imidazo[1,5-a]pyridone[3,4-e]pyrazoline-8-hydrazide] it is 12.6 °C.
On the same count and under the same terms, the figure for `[2H]C([2H])([2H])NN(C(=O)c1ccc2nc(N)c3c(c2c1)COC3)C1COCc2c1ccn1c(C(F)(F)F)cnc21` (stereo not drawn) [Example 392, 4-Amino-N'-(trideuteriomethyl)-N-(3-trifluoromethyl-7,10-dihydro-8H-imidazo [1,2-a]pyrano [3,4-c]pyridin-7-yl)-1,3-dihydrofuro [3,4-c] quinoline-8-carbohydrazide] is 10.4 °C; for `[2H]C([2H])([2H])NN(C(=O)c1cc2c3c(c(N)nc2cc1Cl)COC3)C1COCc2c1ccn1c(C(F)(F)F)cnc21` (stereo not drawn) [Example 394, 4-Amino-7-chloro-N'-(methyl-d3)-N-(3-(trifluoromethyl)-7,10-dihydro-8H-imidazo [1,2-a]pyrano [3,4-c]pyridin-7-yl)-1,3-dihydrofuro [3,4-c] quinoline-8-carbohydrazide] it is 13.2 °C; for `[2H]C([2H])([2H])NN(C(=O)c1cc2c(cc1Cl)nc(N)c1cnn(C)c12)C1COCc2c1ccn1c(C(F)(F)F)cnc21` (stereo not drawn) [Example 435, 4-Amino-7-chloro-1-methyl-N'-(methyl-d3)-N-(3-(trifluoromethyl)-7,10-dihydro-8H-imidazo[1,2-a]pyrano[3,4-c]pyridin-7-yl)-1H-pyrazolo[4,3-c] quinoline-8-carbohydrazide] it is 13.7 °C.
The same measure, in the same setting: then `[2H]C([2H])([2H])NN(C(=O)c1ccc2nc(N)c3cnn(C)c3c2c1)[C@@H]1COCc2c1ccn1c(C(F)(F)F)cnc21` [Example 436-P1], with 11.9 °C.
Take `CNN(C(=O)c1cc2c3c(c(N)nc2cn1)N=NC3C)C1COCc2c1ccn1c(C(F)(F)F)cnc21` (stereo not drawn) [Example 444, 4-Amino-N',1-dimethyl-N-(3-(trifluoromethyl)-7,10-dihydro-8H-imidazo[1,2-a]pyrano[3,4-c]pyridin-7-yl)-1H-pyrazolo[3,4-c][1,7]naphthyridine-8-carbohydrazide]: in data set [1], the ΔTm at 8 µM stood at 12.7 °C.
